Measurements from paper PMC9292003, “A β‐ketoacyl carrier protein reductase confers heat tolerance via the regulation of fatty acid biosynthesis and stress signaling in rice” (The New Phytologist, 2021).

Biological target: T1, HTS1 (GST-HTS1) (Oryza sativa, UniProt Q7XMI8)
T1 construct: E. coli BL21; vector printed as pET30a
Assay: NADPH absorption at
Type: biochemical
Conditions: reductase activity; co-substrate printed as NADH in results, NADPH in methods

## CC(=O)CC(=O)SCCNC(=O)CCNC(=O)[C@H](O)C(C)(C)COP(=O)(O)OP(=O)(O)OC[C@H]1O[C@@H](n2cnc3c(N)ncnc32)[C@H](O)[C@@H]1OP(=O)(O)O [acetoacetyl-CoA]
  NADPH absorption at 340 nm: High catalytic activity was detected in GST‐HTS1 after introducing acetoacetyl‐CoA and NADH
